Experimental data as given in US20200390755A1, “COMPOUND FOR TREATING NERVOUS SYSTEM DISEASES AND USE THEREOF” (SHAANXI MICOT TECHNOLOGY CO., LTD., priority 2018, published 2020).

How the values were obtained:
WT mice [1] = experiment: Slope balance beam experiment, WT mice; format: in vivo, mouse; conditions: 5 mg/kg/d intragastric
Protocol: (§1) 7-week-old N171-82Q HD male mice were paired with female B6C3F1/J hybrid mice to obtain newborn mice. From 21 days of age, male mice were housed in separate cages. 0.5 cm of mouse tail tissue was removed to extract DNA to determine the genotype of the mouse, such that N171-82Q HD mice and WT mice needed for the experiment were obtained. The mice were randomly divided into WT Vehicle group (normal mice), WT test compound group (administration group of normal mice, 5 mg/kg/d, n=10), HD Vehicle group (blank group of HD mice, n=15), HD test compound group (administration groups 1-5 of HD mice, 5 mg/kg/d, n=10). The test compound was suspended in 1% CMC-Na solution and administered by intragastric administration until the end of the study. The weights of the mice were measured every week. Behavioral tests were performed at 12 weeks, 18 weeks, and 24 weeks of age to investigate motor function. At 20 weeks, 3 samples of tissue from each group were used for western blotting and immunohistochemistry. At 24 weeks, MRI scans were performed. At the end of the study, the effect of the test compound on the mortality of mice was evaluated. The software Sigmaplot 13.0 was used for statistical analysis of the data, and the data of each group was expressed as mean standard error (x±SEM). Behavioral test results were analyzed using two-way (genotype and processing factor) ANOVA and post-ho tests, the comparison and statistics of weight data were performed using two-way (genotype and age) ANOVA of repeated measures, and mortality was counted using Kaplan-Meier method. Other measurement data were analyzed by one-way ANOVA. P<0.05 was considered statistically significant. The motor function of mice was evaluated by the rotarod experiment and three types of balance beam experiments. The shorter the time for mouse to cross the balance beam, and the longer the time to drop, the stronger the coordination ability of the mouse. […] If the time for crossing the beams was greater than 60 seconds, it was recorded as 60 seconds.

WT mice [2] = experiment: High-altitude balance beam (11 mm) experiment 1, WT mice; format: in vivo, mouse; conditions: 5 mg/kg/d intragastric
Protocol: as §1, with “experiments.” for “experiments. The shorter the time for mouse to cross the balance beam, and the longer the time to drop, the stronger the coordination ability of the mouse.”, “seconds. a round balance beam with a length of 80 cm and a diameter of 11 mm was place at a height of about 50 cm from the ground. […]” for “seconds.”

O=c1cc(-c2ccc(N3CCCCC3)cc2)oc2c(O)c(O)ccc12 [Example 1, 7,8-dihydroxy-2-(4-(piperidin-1-yl)phenyl)-4H-chromen-4-one]
Time for crossing the beams, slope balance beam (WT mice [1]; 12 w): 18.82 ± 28.33 s | Time for crossing the beams, slope balance beam (WT mice [1]; 18 w): 12.45 ± 6.23 s | Time for crossing the beams, slope balance beam (WT mice [1]; 24 w): 15.50 ± 6.11 s | Time for crossing the beams, high-altitude balance beam (11 mm) (WT mice [2]; 12 w): 8.18 ± 1.99 s | Time for crossing the beams, high-altitude balance beam (11 mm) (WT mice [2]; 18 w): 7.55 ± 2.42 s | Time for crossing the beams, high-altitude balance beam (11 mm) (WT mice [2]; 24 w): 8.18 ± 4.29 s
